{
  "source": "patent US20070191451A1",
  "about": "“USE OF BENZO-HETEROARYL SULFAMIDE DERIVATIVES AS NEUROPROTECTIVE AGENTS” (priority 2006, published 2007)",
  "key": {"Rat Hippocampal Cultures": {"system": "Rat Hippocampal Cultures", "test": "Cell Titer Glo/Cell Viability in vitro assay, rat hippocampal cultures, insult with 150 μM H2O2", "format": "cell-based", "details": "for Cell Titer Glo/Cell Viability / Cell Titer Glo/Cell Viability, Mean: insult with 150 μM H2O2; for Cell Titer Glo/Cell Viability, Mean: mean of 3 plates, n=9", "method": "(§1) The assay was run according to the procedure listed within the insert of the kit purchased from Promega (see attachment at the end of the application).\n(§2) Cell cultures were prepared as follows. Dissociated hippocampal and cortical cell cultures were established from embryonic day 18 rat fetuses. The fetuses were removed via cesarean section from pregnant dams (Harlan Sprague-Dawley) anesthetized with halothane according to the AVMA Panel on Euthanasia. Pups were decapitated and the brains were removed and placed in Hank's Balanced Salt solution (1×HBSS; Gibco, Rockville, Md.). The hippocampi and cortices were dissected out and pooled according to tissue-type. Tissue was trypsinized for 15 min (1 mg/ml trypsin-HBSS; Worthington, Lakewood, N.J.), rinsed with fresh HBSS, incubated in trypsin inhibitor (1 mg/ml; Sigma, St. Louis, Mo.) for 5 min, rinsed again with fresh HBSS and then triturated in 1 ml fresh HBSS with a fire-polished glass pipette. Dissociated cells were seeded at 10,000 cells/well onto poly-D-lysine coated 96-well plates (BD BioScience, Bedford, Mass.) containing 100 ul/well Eagle's Minimal Essential Media (MEM; Gibco) supplemented with 26 mM NaHCO3 (Sigma), 40 mM glucose (Sigma), 20 mM KCl (Sigma), 1 mM sodium pyruvate (Sigma), 10% (v/v) heat-inactivated fetal bovine serum (Hyclone, Logan, Utah), and 0.001% gentamicin sulfate (Sigma) (pH 7.4). Serum-free cultures were plated and maintained in Neurobasal medium+B27 supplement (Gibco). Cells were allowed to attach for 24h in a humidified 37° C. 5% CO2 incubator before experimental treatment.\n(§3) Test compounds were prepared as follows: A 10 mM stock in DMSO of each compound was diluted 1:50 in DPBS rendering a final stock of 200 μM. […] Equal amounts of vehicle or diluted compound were added to each culture well.\n(§4) A 30% stock solution of hydrogen peroxide (H2O2; Sigma) was diluted with DPBS 1:100 to yield a […] stock. Five microliters of vehicle or H2O2 stock solution was added to each 100 ul culture well to yield a final concentration of 150 uM.\n(§5) Note that in the data listed below, each plate was run in triplicate for a total of n=9."}, "[1]": {"system": "Rat Cerebral Cortical Cultures", "test": "Cell Titer Glo/Cell Viability in vitro assay, rat cerebral cortical cultures, insult with 150 μM H2O2", "format": "cell-based", "details": "for Cell Titer Glo/Cell Viability, Mean: mean of 3 plates", "method": "as §1, §2, §3, §4, §5"}, "[2]": {"details": "compound 0.1 μM, Plate 1 (run in triplicate)"}, "[3]": {"details": "compound 0.1 μM, Plate 2 (run in triplicate)"}, "[4]": {"details": "compound 0.1 μM, Plate 3 (run in triplicate)"}, "[5]": {"details": "compound 1 μM, Plate 1 (run in triplicate)"}, "[6]": {"details": "compound 1 μM, Plate 2 (run in triplicate)"}, "[7]": {"details": "compound 1 μM, Plate 3 (run in triplicate)"}, "[8]": {"details": "compound 10 μM, Plate 1 (run in triplicate)"}, "[9]": {"details": "compound 10 μM, Plate 2 (run in triplicate)"}, "[10]": {"details": "compound 10 μM, Plate 3 (run in triplicate)"}},
  "data": [
    {"compound": "NS(=O)(=O)NCc1csc2ccccc12", "note": "[Compound #1, N-(benzo[b]thien-3-ylmethyl)-sulfamide]", "values": [
      {"measurement": "protecting neurons from death and/or damage from oxidative stress or oxidative injury", "setting": "Rat Hippocampal Cultures; conclusion in words from the data of Tables 4 and 5, H2O2 insult", "result": "effective at protecting neurons from death and/or damage"},
      {"measurement": "Cell Titer Glo/Cell Viability", "setting": "Rat Hippocampal Cultures; [2]", "result": 28},
      {"measurement": "Cell Titer Glo/Cell Viability", "setting": "Rat Hippocampal Cultures; [3]", "result": 16},
      {"measurement": "Cell Titer Glo/Cell Viability", "setting": "Rat Hippocampal Cultures; [4]", "result": 17},
      {"measurement": "Cell Titer Glo/Cell Viability, Mean", "setting": "Rat Hippocampal Cultures; compound 0.1 μM", "result": 20},
      {"measurement": "Cell Titer Glo/Cell Viability", "setting": "Rat Hippocampal Cultures; [5]", "result": 30},
      {"measurement": "Cell Titer Glo/Cell Viability", "setting": "Rat Hippocampal Cultures; [6]", "result": 12},
      {"measurement": "Cell Titer Glo/Cell Viability", "setting": "Rat Hippocampal Cultures; [7]", "result": 13},
      {"measurement": "Cell Titer Glo/Cell Viability, Mean", "setting": "Rat Hippocampal Cultures; compound 1 μM", "result": 18},
      {"measurement": "Cell Titer Glo/Cell Viability", "setting": "Rat Hippocampal Cultures; [8]", "result": 41},
      {"measurement": "Cell Titer Glo/Cell Viability", "setting": "Rat Hippocampal Cultures; [9]", "result": 46},
      {"measurement": "Cell Titer Glo/Cell Viability", "setting": "Rat Hippocampal Cultures; [10]", "result": 45},
      {"measurement": "Cell Titer Glo/Cell Viability, Mean", "setting": "Rat Hippocampal Cultures; compound 10 μM, **p < 0.01 (Kruskal-Wallis, Dunn's post-hoc)", "result": "44**"}
    ]},
    {"compound": "NS(=O)(=O)NCc1csc2ccc(F)cc12", "note": "[Compound #8, N-[(5-fluorobenzo[b]thien-3-yl)methyl]-sulfamide]", "values": [
      {"measurement": "Cell Titer Glo/Cell Viability", "setting": "[1]; [2]", "result": 16},
      {"measurement": "Cell Titer Glo/Cell Viability", "setting": "[1]; [3]", "result": 43},
      {"measurement": "Cell Titer Glo/Cell Viability", "setting": "[1]; [4]", "result": 19},
      {"measurement": "Cell Titer Glo/Cell Viability, Mean", "setting": "[1]; compound 0.1 μM, n=9", "result": 26},
      {"measurement": "Cell Titer Glo/Cell Viability", "setting": "[1]; [5]", "result": 13},
      {"measurement": "Cell Titer Glo/Cell Viability", "setting": "[1]; [6]", "result": 24},
      {"measurement": "Cell Titer Glo/Cell Viability", "setting": "[1]; [7]", "result": 12},
      {"measurement": "Cell Titer Glo/Cell Viability, Mean", "setting": "[1]; compound 1 μM, n=9", "result": 16},
      {"measurement": "Cell Titer Glo/Cell Viability", "setting": "[1]; [8]", "result": 22},
      {"measurement": "Cell Titer Glo/Cell Viability", "setting": "[1]; [9]", "result": 27},
      {"measurement": "Cell Titer Glo/Cell Viability", "setting": "[1]; [10]", "result": 30},
      {"measurement": "Cell Titer Glo/Cell Viability, Mean", "setting": "[1]; compound 10 μM, n=9, *p < 0.05 (Kruskal-Wallis, Dunn's post-hoc)", "result": "26*"}
    ]}
  ]
}
